For this assay, the system named is BDF1 mice, P388/VCR leukemia ip, median survival T/C. Description: NCI In Vivo Anticancer Drug Screen. Data for tumor model P388 Leukemia resistant to Vincristine; NSC 67574 (intraperitoneal) in B6D2F1 (BDF1) mice. To be noted: endpoint: median survival time, higher = longer survival. Here is the method: The antitumor activity of compounds was measured in mice bearing transplantable tumors. Survival or tumor size were measured and the results are expressed as the measurement made in the treated group (T) divided by the measurement made in the vehicle treated control group (C). The tumor model used in this assay is P388 Leukemia resistant to Vincristine; NSC 67574 (intraperitoneal) in B6D2F1 (BDF1) mice

Setting [1] is: dose: 120.0 mg/kg/injection, schedule: Q01DX010 (ip), vehicle: saline.
Where [2] appears, read: dose: 2.0 mg/kg/injection, schedule: Q01DX010 (ip), vehicle: saline.
Setting [3] is: dose: 8.0 mg/kg/injection, schedule: Q01DX010 (ip), vehicle: saline.
Setting [4] is: dose: 25.0 mg/kg/injection, schedule: Q01DX010 (ip), vehicle: saline.
[5] abbreviates: dose: 50.0 mg/kg/injection, schedule: Q01DX010 (ip), vehicle: saline.

Data on twelve molecules can be found in PubChem BioAssay AID336 (DTP/NCI, 2004).

“And” between values parts separate entries of the source, which are not always exact repeats. Equal values may be shown once. Inconclusive results and toxic doses are left out.

In the case of `O=C(Nc1cccc(C(=O)Nc2ccc(C3=NCCN3)cc2)c1)c1ccc(C2=NCCN2)cc1`, the T/C (dose: 54.0 mg/kg/injection, schedule: Q01DX010 (ip), vehicle: saline) is 104 % of control.

For `COC(=O)C[C@](O)(CCC(C)(C)O)C(=O)O[C@@H]1C(OC)=C[C@]23CCCN2CCc2cc4c(cc2[C@H]13)OCO4`, the T/C reads like this: (dose: 0.25 mg/kg/injection, schedule: Q01DX009 (ip), vehicle: saline) 92 % of control; (dose: 0.5 mg/kg/injection, schedule: Q01DX009 (ip), vehicle: saline) 100 % of control; (dose: 1.0 mg/kg/injection, schedule: Q01DX009 (ip), vehicle: saline) 88 % of control.

For `C[N+](C)(C)c1ncnc2nc[nH]c12`, the T/C by setting is: (dose: 15.0 mg/kg/injection, schedule: Q01DX010 (ip), vehicle: saline) 100 % of control; (dose: 30.0 mg/kg/injection, schedule: Q01DX010 (ip), vehicle: saline) 120 % of control; (dose: 60.0 mg/kg/injection, schedule: Q01DX010 (ip), vehicle: saline) 113 % of control; under setting [1], 116 % of control.

As to `[I][Hg][CH2]C1COC([CH2][Hg][I])CO1` (stereo unspecified), the T/C runs as follows: (dose: 0.78 mg/kg/injection, schedule: Q01DX010 (ip), vehicle: saline) 88 % of control; (dose: 1.56 mg/kg/injection, schedule: Q01DX010 (ip), vehicle: saline) 103 % of control; (dose: 3.13 mg/kg/injection, schedule: Q01DX010 (ip), vehicle: saline) 111 % of control.

Regarding `O=C(Nc1ccc(NC(=O)Nc2ccc(C3=NCCN3)cc2)cc1)Nc1ccc(C2=NCCN2)cc1`, the T/C (dose: 250.0 mg/kg/injection, schedule: Q01DX010 (ip), vehicle: saline) was 150 % of control and the T/C (dose: 375.0 mg/kg/injection, schedule: Q01DX010 (ip), vehicle: saline) is 154 % of control.

On to `CO[C@H](C(=O)[C@@H](O)[C@@H](C)O)[C@@H]1Cc2cc3cc(OC4CC(OC5CC(O)C(O)C(C)O5)C(O)C(C)O4)c(C)c(O)c3c(O)c2C(=O)[C@H]1OC1CC(OC2CC(OC3CC(C)(O)C(O)C(C)O3)C(O)C(C)O2)C(O)C(C)O1` (stereo partly specified), for which the T/C is 97 % of control (dose: 216.0 micrograms/kg/injection, schedule: Q01DX005 (ip), vehicle: water); 100 % of control (dose: 360.0 micrograms/kg/injection, schedule: Q01DX005 (ip), vehicle: water); 95 % of control (dose: 600.0 micrograms/kg/injection, schedule: Q01DX005 (ip), vehicle: water); 95 % of control (dose: 1000.0 micrograms/kg/injection, schedule: Q01DX005 (ip), vehicle: water).

As for `C=CC(CN1CC1)OC(C)=O` (stereo unspecified), the T/C runs as follows: under setting [2], 116 % of control; under setting [3], 123 % of control.

`C[C@]12C=CC(=O)C=C1CC[C@@H]1[C@@H]2[C@@H](O)C[C@@]2(C)[C@H]1CC[C@]2(O)C(=O)CO`: the T/C runs as follows: (dose: 12.5 mg/kg/injection, schedule: Q01DX010 (sc), vehicle: steriod suspending solution) 107 % of control and 116 % of control; (dose: 25.0 mg/kg/injection, schedule: Q01DX010 (sc), vehicle: steriod suspending solution) 103 % of control and 116 % of control; (dose: 50.0 mg/kg/injection, schedule: Q01DX010 (sc), vehicle: steriod suspending solution) 103 % of control and 120 % of control; (dose: 100.0 mg/kg/injection, schedule: Q01DX010 (sc), vehicle: steriod suspending solution) 108 % of control and 111 % of control.

`CN(C)/N=N/c1nc[nH]c1C(N)=O`: the T/C runs as follows: under setting [4], 100 % of control and 116 % of control; under setting [5], 107 % of control; (dose: 200.0 mg/kg/injection, schedule: Q01DX010 (ip), vehicle: saline) 107 % of control and 116 % of control.

Consider `CC(CCC(C)OS(C)(=O)=O)OS(C)(=O)=O` (stereo unspecified), for which the T/C under setting [2] was 100 % of control; the T/C (dose: 4.0 mg/kg/injection, schedule: Q01DX010 (ip), vehicle: saline) was 96 % of control; the T/C under setting [3] is 96 % of control and 100 % of control; the T/C (dose: 16.0 mg/kg/injection, schedule: Q01DX010 (ip), vehicle: saline) was 100 % of control and 112 % of control; the T/C (dose: 32.0 mg/kg/injection, schedule: Q01DX010 (ip), vehicle: saline) is 90 % of control.

Regarding `O=C(Nc1ccc(NC(=O)Nc2cccc(C3=NCCN3)c2)cc1)Nc1cccc(C2=NCCN2)c1`, the T/C was 162 % of control and 183 % of control under setting [1]; 100 % of control (dose: 480.0 mg/kg/injection, schedule: Q01DX010 (ip), vehicle: saline).

As for `CS(=O)(=O)OCCCCOS(C)(=O)=O`, the T/C runs as follows: (dose: 6.25 mg/kg/injection, schedule: Q01DX010 (ip), vehicle: saline) 88 % of control and 96 % of control; under setting [4], 92 % of control; under setting [5], 96 % of control.
